According to PMC4300089, “Structure-Guided Design of Selective Epac1 and Epac2 Agonists” (PLoS Biology, 2015):

What was measured:
Epac1 = molecular target: T1, Epac1 (Homo sapiens, UniProt O95398); experiment: Epac activation assay, Epac1; format: biochemical
T1 construct: made in house
T1 sequence (O95398 150-881 isoform O95398-3): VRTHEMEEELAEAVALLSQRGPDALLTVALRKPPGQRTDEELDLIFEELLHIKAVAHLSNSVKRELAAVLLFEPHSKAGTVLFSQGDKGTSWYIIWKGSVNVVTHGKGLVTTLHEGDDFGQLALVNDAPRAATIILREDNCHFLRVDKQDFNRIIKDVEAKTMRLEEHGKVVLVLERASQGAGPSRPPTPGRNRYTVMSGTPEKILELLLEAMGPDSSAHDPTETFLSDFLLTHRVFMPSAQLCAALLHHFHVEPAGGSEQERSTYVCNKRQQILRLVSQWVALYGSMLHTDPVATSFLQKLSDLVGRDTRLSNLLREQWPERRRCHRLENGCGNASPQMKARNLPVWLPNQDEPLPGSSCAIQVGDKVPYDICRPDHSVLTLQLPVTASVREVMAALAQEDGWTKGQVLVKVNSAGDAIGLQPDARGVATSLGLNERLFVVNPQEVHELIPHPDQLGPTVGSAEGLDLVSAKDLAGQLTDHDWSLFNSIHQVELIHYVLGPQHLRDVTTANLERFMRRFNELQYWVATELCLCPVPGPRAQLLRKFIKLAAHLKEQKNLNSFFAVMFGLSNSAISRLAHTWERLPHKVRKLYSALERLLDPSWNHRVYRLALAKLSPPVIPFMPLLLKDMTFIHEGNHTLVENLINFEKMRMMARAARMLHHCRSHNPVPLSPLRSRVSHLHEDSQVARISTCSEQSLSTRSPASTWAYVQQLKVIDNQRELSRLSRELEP

Epac2^Δ280,K450A = molecular target: T2, Epac2^Δ280,K450A (Mus musculus, UniProt Q9EQZ6, K468A); experiment: Epac activation assay, Epac2 K450A mutant; format: biochemical
T2 construct: made in house
T2 sequence (Q9EQZ6 281-993 isoform Q9EQZ6-3 K450A): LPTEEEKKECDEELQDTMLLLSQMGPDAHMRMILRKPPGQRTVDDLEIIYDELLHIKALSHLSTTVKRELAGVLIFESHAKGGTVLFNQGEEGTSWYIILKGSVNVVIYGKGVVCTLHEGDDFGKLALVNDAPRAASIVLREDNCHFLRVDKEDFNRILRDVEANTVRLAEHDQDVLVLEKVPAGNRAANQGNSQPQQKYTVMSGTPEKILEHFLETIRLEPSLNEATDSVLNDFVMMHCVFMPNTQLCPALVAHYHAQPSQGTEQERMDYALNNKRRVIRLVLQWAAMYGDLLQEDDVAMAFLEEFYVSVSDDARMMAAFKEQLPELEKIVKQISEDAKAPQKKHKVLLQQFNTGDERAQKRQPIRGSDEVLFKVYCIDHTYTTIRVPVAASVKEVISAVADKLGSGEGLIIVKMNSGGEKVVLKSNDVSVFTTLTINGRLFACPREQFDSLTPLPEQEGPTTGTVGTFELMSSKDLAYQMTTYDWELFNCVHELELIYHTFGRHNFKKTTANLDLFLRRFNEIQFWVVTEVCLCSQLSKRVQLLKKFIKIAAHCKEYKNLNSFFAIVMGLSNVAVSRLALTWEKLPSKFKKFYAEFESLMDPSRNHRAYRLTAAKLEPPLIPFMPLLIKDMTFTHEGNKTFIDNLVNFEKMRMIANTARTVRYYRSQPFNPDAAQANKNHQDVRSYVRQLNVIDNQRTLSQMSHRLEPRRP
Procedure: Murine Epac2 was used as all previous structural studies were performed with it.
The activity of Epac was determined by a fluorescence assay. […] The fluorescence intensity of Rap1B•mGDP is approximately twice that of free mGDP, and thus, nucleotide exchange can be observed as a decay in fluorescence upon the addition of excess unlabeled GDP.

primary human islets = experiment: Insulin secretion assay in primary human islets; format: cell-based; conditions: 25 to 100 μM; compared with Forskolin/IBMX
Procedure: Islets were isolated from two human donor pancreases. Intact islets (n = 20 per well) were seeded on ultra-low attachment 96-well plate. After 3 days of culture, the pancreatic islets were washed two times with 115 mM NaCl, 5 mM KCl, 24 mM NaHCO3, 2.2 mM CaCl2, 1 mM MgCl2, 20 mM HEPES, and 0.2% human serum albumin (incubation buffer) and primed for 1.5 h at 37°C in incubation buffer supplemented with 2 mM glucose (low glucose). Subsequently, the cells were incubated in fresh incubation buffer supplemented with 2 mM glucose for 1 h to measure the basal insulin secretion levels. […] The cell supernatants were collected immediately after incubation with low and high glucose. The insulin concentrations were measured by ELISA (Insulin ELISA Kit, Mercodia). The insulin secretion was expressed as the ratio of insulin concentration at high and low glucose concentrations for each well (insulin secretion index).

## Nc1ncnc2c1nc(SCc1ccccc1)n2[C@@H]1O[C@@H]2CO[P@](O)(=S)O[C@H]2[C@H]1O [S-220, Sp-8-BnT-cAMPS]
Epac1; 0.01 μM compound
  kobs: 1.6e-05 s⁻¹
Epac1; 0.05 μM compound
  kobs: 1.5e-05 s⁻¹
Epac1; 0.08 μM compound
  kobs: 1.6e-05 s⁻¹
Epac1; 0.1 μM compound
  kobs: 1.7e-05 s⁻¹
Epac1; 0.2 μM compound
  kobs: 1.7e-05 s⁻¹
Epac1; 0.3 μM compound
  kobs: 2e-05 s⁻¹
Epac1; 0.5 μM compound
  kobs: 2.2e-05 s⁻¹
Epac1; 0.6 μM compound
  kobs: 2.5e-05 s⁻¹
Epac1; 0.7 μM compound
  kobs: 2.7e-05 s⁻¹
Epac1; 0.8 μM compound
  kobs: 2.8e-05 s⁻¹
Epac1; 1 μM compound
  kobs: 4.3e-05 s⁻¹
Epac1; 2 μM compound
  kobs: 5.8e-05 s⁻¹
Epac1; 3 μM compound
  kobs: 7.9e-05 s⁻¹
Epac1; 4 μM compound
  kobs: 9.2e-05 s⁻¹
Epac1; 5 μM compound
  kobs: 0.000102 s⁻¹
Epac1; 6 μM compound
  kobs: 0.000128 s⁻¹
Epac1; 7 μM compound
  kobs: 0.000149 s⁻¹
Epac1; 8 μM compound
  kobs: 0.000153 s⁻¹
Epac1; 10 μM compound
  kobs: 0.000213 s⁻¹
Epac1; 20 μM compound
  kobs: 0.000263 s⁻¹
Epac1; 30 μM compound
  kobs: 0.000312 s⁻¹
Epac1; 40 μM compound
  kobs: 0.00033 s⁻¹
Epac1; 50 μM compound
  kobs: 0.000328 s⁻¹
Epac1; 60 μM compound
  kobs: 0.000336 s⁻¹
Epac1; 70 μM compound
  kobs: 0.000338 s⁻¹
Epac1; 80 μM compound
  kobs: 0.000331 s⁻¹
Epac1; Epac1
  AC50: 13 µM
  ability to reach half-maximal cAMP activity: cannot activate Epac1 to the level of half-maximal cAMP-activity
Epac1; Epac1, maximal activity relative to cAMP
  Rel. kmax: 0.3
Epac2^Δ280,K450A; 0.001 μM compound
  kobs: 3.1e-05 s⁻¹
Epac2^Δ280,K450A; 0.003 μM compound
  kobs: 3.7e-05 s⁻¹
Epac2^Δ280,K450A; 0.005 μM compound
  kobs: 4.4e-05 s⁻¹
Epac2^Δ280,K450A; 0.008 μM compound
  kobs: 5.2e-05 s⁻¹
Epac2^Δ280,K450A; 0.02 μM compound
  kobs: 0.00011 s⁻¹
Epac2^Δ280,K450A; 0.03 μM compound
  kobs: 0.000139 s⁻¹
Epac2^Δ280,K450A; 0.04 μM compound
  kobs: 0.000168 s⁻¹
Epac2^Δ280,K450A; 0.05 μM compound
  kobs: 0.000199 s⁻¹
Epac2^Δ280,K450A; 0.06 μM compound
  kobs: 0.000232 s⁻¹
Epac2^Δ280,K450A; 0.07 μM compound
  kobs: 0.00026 s⁻¹
Epac2^Δ280,K450A; 0.08 μM compound
  kobs: 0.000277 s⁻¹
Epac2^Δ280,K450A; 0.1 μM compound
  kobs: 0.000306 s⁻¹
Epac2^Δ280,K450A; 0.2 μM compound
  kobs: 0.000564 s⁻¹
Epac2^Δ280,K450A; 0.3 μM compound
  kobs: 0.000705 s⁻¹
Epac2^Δ280,K450A; 0.4 μM compound
  kobs: 0.000743 s⁻¹
Epac2^Δ280,K450A; 0.5 μM compound
  kobs: 0.000763 s⁻¹
Epac2^Δ280,K450A; 0.6 μM compound
  kobs: 0.000845 s⁻¹
Epac2^Δ280,K450A; 0.7 μM compound
  kobs: 0.000882 s⁻¹
Epac2^Δ280,K450A; 0.8 μM compound
  kobs: 0.000882 s⁻¹
Epac2^Δ280,K450A; 1 μM compound
  kobs: 0.000894 s⁻¹
Epac2^Δ280,K450A; 2 μM compound
  kobs: 0.000904 s⁻¹
Epac2^Δ280,K450A; 3 μM compound
  kobs: 0.000886 s⁻¹
Epac2^Δ280,K450A; 4 μM compound
  kobs: 0.000912 s⁻¹
Epac2^Δ280,K450A; 5 μM compound
  kobs: 0.000879 s⁻¹
Epac2^Δ280,K450A; 6 μM compound
  kobs: 0.00102 s⁻¹
Epac2^Δ280,K450A; 7 μM compound
  kobs: 0.00106 s⁻¹
Epac2^Δ280,K450A; 8 μM compound
  kobs: 0.00109 s⁻¹
Epac2^Δ280,K450A; 10 μM compound
  kobs: 0.00103 s⁻¹
Epac2^Δ280,K450A; Epac2^Δ280,K450A
  kmax-value: reduced to that of S-000
Primary human islets
  glucose-induced insulin secretion: potentiates glucose-induced insulin secretion with similar efficiency
